PubChem BioAssay (NCI)
Where “and” joins values, the source holds several entries; their conditions need not be identical. Identical values can stand only once.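 At the GI50, growth is halved. TGI marks complete inhibition of growth.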

Legend:
Assay in all cases: NCI anticancer screen, dose series, 384-well format
MALME-3M melanoma = tested on: MALME-3M melanoma
CCRF-CEM leukemia = tested on: CCRF-CEM leukemia
SF-268 CNS = tested on: SF-268 CNS
OVCAR-8 ovarian = tested on: OVCAR-8 ovarian
NCI/ADR-RES ovarian = tested on: NCI/ADR-RES ovarian
UACC-257 melanoma = tested on: UACC-257 melanoma
UO-31 renal = tested on: UO-31 renal
SK-OV-3 ovarian = tested on: SK-OV-3 ovarian
SN12C renal = tested on: SN12C renal
HL-60(TB) leukemia = tested on: HL-60(TB) leukemia
BT-549 breast = tested on: BT-549 breast
SK-MEL-2 melanoma = tested on: SK-MEL-2 melanoma
SR leukemia = tested on: SR leukemia
NCI-H226 lung = tested on: NCI-H226 lung
HT29 colon = tested on: HT29 colon
DU-145 prostate = tested on: DU-145 prostate
UACC-62 melanoma = tested on: UACC-62 melanoma
OVCAR-4 ovarian = tested on: OVCAR-4 ovarian
CAKI-1 renal = tested on: CAKI-1 renal
PC-3 prostate = tested on: PC-3 prostate
MDA-MB-231 breast = tested on: MDA-MB-231 breast
A498 renal = tested on: A498 renal
RXF 393 renal = tested on: RXF 393 renal
IGROV1 ovarian = tested on: IGROV1 ovarian
MCF7 breast = tested on: MCF7 breast
SF-539 CNS = tested on: SF-539 CNS
HS 578T breast = tested on: HS 578T breast
NCI-H23 lung = tested on: NCI-H23 lung
LOX IMVI melanoma = tested on: LOX IMVI melanoma
MOLT-4 leukemia = tested on: MOLT-4 leukemia

SMILES: O=S(=O)(NCCNC/C=C/c1ccc(Br)cc1)c1cccc2cnccc12
- TGI (MALME-3M melanoma): 1.62 µM and 4.15 µM
- GI50 (CCRF-CEM leukemia): 3.81 µM and 5.3 µM
- TGI (CCRF-CEM leukemia): 11.4 µM and 16.8 µM
- GI50 (SF-268 CNS): 12 µM and 12.9 µM
- TGI (SF-268 CNS): 24.4 µM and 25.6 µM
- GI50 (OVCAR-8 ovarian): 12.2 µM and 11.8 µM
- TGI (OVCAR-8 ovarian): 24.7 µM and 24.2 µM
- GI50 (NCI/ADR-RES ovarian): 13.2 µM and 14.6 µM
- TGI (NCI/ADR-RES ovarian): 26.1 µM and 27.9 µM
- GI50 (UACC-257 melanoma): 2.2 µM and 2.34 µM
- TGI (UACC-257 melanoma): 4.51 µM and 5.87 µM
- GI50 (UO-31 renal): 12.5 µM and 13.1 µM
- TGI (UO-31 renal): 25.1 µM and 26 µM
- GI50 (SK-OV-3 ovarian): 10.4 µM and 10.9 µM
- TGI (SK-OV-3 ovarian): 22.2 µM and 22.9 µM
- GI50 (SN12C renal): 13.4 µM and 13.1 µM
- TGI (SN12C renal): 26.3 µM and 25.8 µM
- GI50 (HL-60(TB) leukemia): 1.21 µM and 3.62 µM
- TGI (HL-60(TB) leukemia): 10.8 µM and 12.6 µM
- GI50 (BT-549 breast): 3.57 µM and 6.51 µM
- TGI (BT-549 breast): 11.8 µM and 19.2 µM
- GI50 (SK-MEL-2 melanoma): 2.74 µM
- TGI (SK-MEL-2 melanoma): 6.86 µM
- GI50 (SR leukemia): 0.34 µM and 3.27 µM
- TGI (SR leukemia): 1.15 µM and 5.05 µM
- GI50 (NCI-H226 lung): 11.2 µM and 15.4 µM
- TGI (NCI-H226 lung): 23.4 µM and 28.8 µM
- GI50 (HT29 colon): 3.17 µM and 4.08 µM
- TGI (HT29 colon): 9.44 µM and 13.5 µM
- GI50 (DU-145 prostate): 14.5 µM and 13.8 µM
- TGI (DU-145 prostate): 27.8 µM and 26.9 µM
- GI50 (UACC-62 melanoma): 0.814 µM and 3.2 µM
- TGI (UACC-62 melanoma): 6.43 µM and 10.8 µM
- GI50 (OVCAR-4 ovarian): 12.8 µM and 13.8 µM
- TGI (OVCAR-4 ovarian): 25.5 µM and 26.8 µM
- GI50 (CAKI-1 renal): 7.31 µM and 7.09 µM
- TGI (CAKI-1 renal): 20.1 µM and 19.8 µM
- GI50 (PC-3 prostate): 3.6 µM and 6.95 µM
- TGI (PC-3 prostate): 18.6 µM and 19.8 µM
- GI50 (MDA-MB-231 breast): 11.5 µM and 10.9 µM
- TGI (MDA-MB-231 breast): 23.8 µM and 22.9 µM
- GI50 (A498 renal): 5.06 µM and 10.3 µM
- TGI (A498 renal): 19.6 µM and 22.1 µM
- GI50 (RXF 393 renal): 1.08 µM and 5.38 µM
- TGI (RXF 393 renal): 8.71 µM and 18 µM
- GI50 (IGROV1 ovarian): 11.1 µM
- TGI (IGROV1 ovarian): 23.3 µM
- GI50 (MCF7 breast): 3.15 µM and 5.52 µM
- TGI (MCF7 breast): 18.8 µM and 18.2 µM
- GI50 (SF-539 CNS): 5.11 µM and 10.2 µM
- TGI (SF-539 CNS): 19.7 µM and 21.9 µM
- GI50 (HS 578T breast): 4.89 µM and 8.58 µM
- TGI (HS 578T breast): 16.5 µM and 20.7 µM
- GI50 (NCI-H23 lung): 6.06 µM and 10 µM
- TGI (NCI-H23 lung): 20.3 µM and 21.6 µM
- GI50 (LOX IMVI melanoma): 11.6 µM and 10.2 µM
- TGI (LOX IMVI melanoma): 23.9 µM and 22 µM
- GI50 (MOLT-4 leukemia): 2.47 µM and 3.65 µM
- TGI (MOLT-4 leukemia): 6.41 µM and 12.7 µM
